Tested on: murine sperm
Assay: chlortetracycline assay for capacitation of murine sperm in vitro
Format: cell-based
Description: ABCA1 generates HDL by transferring cholesterol onto apoprotein-A1 (apoA1) in a process known as cholesterol efflux, which is also an essential component of male fertility. Sperm are made in the testes and released into the epididymis, where they await ejaculation into the female reproductive tract. Although differentiated, epididymal sperm are not capable of fertilization and must first complete their maturation in the female reproductive tract. This maturation process is known as capacitation and is known to require efflux of cholesterol from the sperm plasma membrane. How this occurs at the molecular level is not well understood. The present invention relies in part on the discovery that ABCA1 is highly expressed in the testes (being present in Sertoli and Leydig cells as well as in differentiating spermatids). […] In accordance with the present invention, ABCA1 is also present in epididymal sperm where it can act to transport cholesterol during capacitation. In vivo, follicular HDL is an endogenous cholesterol acceptor for capacitating sperm, and HDL can stimulate capacitation in vitro. In accordance with the present invention, because cholesterol efflux through ABCA1 is dependent upon apoA1 the ability of apoA1 to stimulate capacitation of murine sperm in vitro was tested using a chlortetracycline assay.

de-lipidated apoA1: apoprotein-A1, the acceptor onto which ABCA1 transfers cholesterol in cholesterol efflux
ability to stimulate capacitation of murine sperm: capacitates sperm in a dose-dependent manner
